These results are taken from patent US12338256B2, “Aza-tetracyclic oxazepine compounds and uses thereof” (Genentech, Inc., priority 2022, dated 2025).

pIC50: −log10 of the molar value. Read-outs that look alike come from different tables or passages of the source.

Test [1] has as its system HPAC (homozygous mutant KRAS G12D human pancreatic cell line). As to the kind of experiment: KRAS 3D-Cell Proliferation Assay, HPAC (Example 503). In kind it is cell-based. Conditions: HPAC 3D culture, 7 days, CellTiter-Glo 3D, read-out: Prolif HPAC 3D ATP IC50. Summed up: (§1)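 IC50s come from a 4-parameter Hill fit of luminescence (CellTiter-Glo 3D) normalized between DMSO (0%) and 1 μM staurosporine (100%). Cells in low-attachment 3D culture, RPMI-1640 with 10% FBS, received serial compound dilutions (0.3% DMSO) after overnight and were incubated 7 days at 37 °C.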
Background: Cellular ATP, detected with luciferase, serves as a proxy for viable cell number.

Test [2] deals with H1975 (KRAS wild type human lung adenocarcinoma cell line). As to the kind of experiment: KRAS 3D-Cell Proliferation Assay, H1975 (Example 503). Conditions: H1975 3D culture, 7 days, CellTiter-Glo 3D, read-out: Prolif H1975 3D ATP IC50. It counts as cell-based. Summed up:
as §1

As a reminder, the pIC50 is the negative decadic logarithm of the IC50, by convention in mol/L.

For `Cc1nc(N)cc(-c2nc3c4c(nc(OCC5(CN6CC[C@H]7OCC[C@H]76)CC5)nc4c2F)N2C[C@H]4CC[C@H](N4)[C@H]2[C@H](C)O3)c1C(F)(F)F` [Compound 268, 4-((5S,5aS,6S,9R)-1-fluoro-12-((1-(((3aR,6aR)-hexahydro-4H-furo[3,2-b]pyrrol-4-yl)methyl)cyclopropyl)methoxy)-5-methyl-5a,6,7,8,9,10-hexahydro-5H-4-oxa-3,10a,11,13,14-pentaaza-6,9-methanonaphtho[1,8-ab]heptalene-2-yl)-6-methyl-5-(trifluoromethyl)pyridin-2-amine], the pIC50 in test [1] (Homo sapiens, HPAC, 168 h) was 8.66; in test [2] (Homo sapiens, NCI-H1975, 168 h), 5.77.

For the compound `Cc1nc(N)cc(-c2nc3c4c(nc(OCC5(CN6CCC7(C6)CC7(F)F)CC5)nc4c2F)N2C[C@H]4CC[C@H](N4)[C@H]2[C@H](C)O3)c1C(F)(F)F` (stereo partly drawn) [Compound 279, 4-((5S,5aS,6S,9R)-12-((1-((1,1-difluoro-5-azaspiro[2.4]heptan-5-yl)methyl)cyclopropyl)methoxy)-1-fluoro-5-methyl-5a,6,7,8,9,10-hexahydro-5H-4-oxa-3,10a,11,13,14-pentaaza[6,9]methanonaphtho[1,8-ab]heptalene-2-yl)-6-methyl-5-(trifluoromethyl)pyridin-2-amine], the pIC50 in test [1] (Homo sapiens, HPAC, 168 h) is 8.69; in test [2] (Homo sapiens, NCI-H1975, 168 h), 5.90.

`Cc1c(F)c(N)nc(-c2nc3c4c(nc(OC[C@@]56CCCN5CC5(CC5(F)F)C6)nc4c2F)N2C[C@H]4CC[C@H](N4)[C@H]2[C@H](C)O3)c1C(F)(F)F` (stereo partly drawn) [Compound 192, 6-((5S,5aS,6S,9R)-12-(((7a′S)-2,2-Difluorodihydro-1′H,3′H-spiro[cyclopropane-1,2′-pyrrolizin]-7a′(5′H)-yl)methoxy)-1-fluoro-5-methyl-5a,6,7,8,9,10-hexahydro-5H-4-oxa-3,10a,11,13,14-pentaaza[6,9]methanonaphtho[1,8-ab]heptalene-2-yl)-3-fluoro-4-methyl-5-(trifluoromethyl)pyridin-2-amine]: the negative logarithm of the IC50 (pIC50) was 8.14 in test [1] (Homo sapiens, HPAC, 168 h) and 5.89 in test [2] (Homo sapiens, NCI-H1975, 168 h).

With `Cc1c(F)c(N)cc(-c2nc3c4c(nc(OC[C@@H](F)CN5CC(CO)(CO)C5)nc4c2F)N2C[C@H]4CC[C@H](N4)[C@H]2[C@H](C)O3)c1C(F)(F)F` [Compound 146], the pIC50 in test [1] (Homo sapiens, HPAC, 168 h) was 5.76; in test [2] (Homo sapiens, NCI-H1975, 168 h) it was 4.70.

`Cc1nc(N)cc(-c2nc3c4c(nc(OCC5(CN6CC[C@H](F)C6)CC5)nc4c2F)N2C[C@H]4CC[C@H](N4)[C@H]2[C@H](C)O3)c1C(F)(F)F` [Compound 283, 4-((5S,5aS,6S,9R)-1-fluoro-12-((1-(((S)-3-fluoropyrrolidin-1-yl)methyl)cyclopropyl)methoxy)-5-methyl-5a,6,7,8,9,10-hexahydro-5H-4-oxa-3,10a,11,13,14-pentaaza-6,9-methanonaphtho[1,8-ab]heptalene-2-yl)-6-methyl-5-(trifluoromethyl)pyridin-2-amine]: the pIC50 was 8.80 in test [1] (Homo sapiens, HPAC, 168 h) and 6.24 in test [2] (Homo sapiens, NCI-H1975, 168 h).

For the compound `Cc1c(F)c(N)cc(-c2nc3c4c(nc(OC[C@@]56CCC(C)N5C[C@H](F)C6)nc4c2F)N2C[C@H]4CC[C@H](N4)[C@H]2[C@H](C)O3)c1C(F)(F)F` (stereo partly drawn) [Compound 122, 2-fluoro-5-((5S,5aS,6S,9R)-1-fluoro-12-(((2R,7aS)-2-fluoro-5-methyltetrahydro-1H-pyrrolizin-7a(5H)-yl)methoxy)-5-methyl-5a,6,7,8,9,10-hexahydro-5H-4-oxa-3,10a,11,13,14-pentaaza-6,9-methanonaphtho[1,8-ab]heptalen-2-yl)-3-methyl-4-(trifluoromethyl)aniline], the negative logarithm of the IC50 (pIC50) in test [1] (Homo sapiens, HPAC, 168 h) was 8.74; in test [2] (Homo sapiens, NCI-H1975, 168 h), 6.31.

Consider `C[C@@H]1Oc2nc(-c3cc(N)ccc3C(C)(C)C)c(F)c3nc(OC[C@@]45CCCN4C[C@H](F)C5)nc(c23)N2C[C@H]3CC[C@H](N3)[C@@H]12` [Compound 117, 4-(tert-butyl)-3-((5S,5aS,6S,9R)-1-fluoro-12-(((2R,7aS)-2-fluorotetrahydro-1H-pyrrolizin-7a(5H)-yl)methoxy)-5-methyl-5a,6,7,8,9,10-hexahydro-5H-4-oxa-3,10a,11,13,14-pentaaza-6,9-methanonaphtho[1,8-ab]heptalen-2-yl)aniline], for which the negative logarithm of the IC50 (pIC50) in test [1] (Homo sapiens, HPAC, 168 h) is 6.83; in test [2] (Homo sapiens, NCI-H1975, 168 h), 5.32.

`Cc1nc(N)c(F)c(-c2nc3c4c(nc(OCC5(CN6C[C@@H]7C[C@H]6CO7)CC5)nc4c2F)N2C[C@H]4CC[C@H](N4)[C@H]2[C@H](C)O3)c1C(F)(F)F` [Compound 222, 4-((5S,5aS,6S,9R)-12-((1-(((1S,4S)-2-Oxa-5-azabicyclo[2.2.1]heptan-5-yl)methyl)cyclopropyl)methoxy)-1-fluoro-5-methyl-5a,6,7,8,9,10-hexahydro-5H-4-oxa-3,10a,11,13,14-pentaaza-6,9-methanonaphtho[1,8-ab]heptalene-2-yl)-3-fluoro-6-methyl-5-(trifluoromethyl)pyridin-2-amine]: the pIC50 in test [1] (Homo sapiens, HPAC, 168 h) is 8.24; in test [2] (Homo sapiens, NCI-H1975, 168 h) it was 5.83.

On to `Cc1cc(N)c(Cl)c(-c2nc3c4c(nc(OC[C@@H]5CC[C@H]6COCCN65)nc4c2F)N2C[C@H]4CC[C@H](N4)[C@H]2[C@H](C)O3)c1C(F)(F)F` [Compound 103, 2-Chloro-3-((5S,5aS,6S,9R)-1-fluoro-12-(((6S,8aS)-hexahydro-1H-pyrrolo[2,1-c][1,4]oxazin-6-yl)methoxy)-5-methyl-5a,6,7,8,9,10-hexahydro-5H-4-oxa-3,10a,11,13,14-pentaaza-6,9-methanonaphtho[1,8-ab]heptalen-2-yl)-5-methyl-4-(trifluoromethyl)aniline], for which the pIC50 in test [1] (Homo sapiens, HPAC, 168 h) was 8.03; in test [2] (Homo sapiens, NCI-H1975, 168 h), 5.46.

Take `Cc1c(F)c(N)cc(-c2nc3c4c(nc(OC[C@@H]5CC[C@@H]6C[C@@H](C(=O)N(C)C)CCN65)nc4c2F)N2C[C@H]4CC[C@H](N4)[C@H]2[C@H](C)O3)c1C(F)(F)F` (single isomer, unassigned) [133 (isomer 1)]: the negative-log IC50 (pIC50) in test [1] (Homo sapiens, HPAC, 168 h) was 7.57; in test [2] (Homo sapiens, NCI-H1975, 168 h), 5.58.

With `Cc1nc(N)cc(-c2nc3c4c(nc(OCC5(CN6C[C@@H]7C[C@H]6CO7)CC5)nc4c2F)N2C[C@H]4CC[C@H](N4)[C@H]2[C@H](C)O3)c1C(F)(F)F` [Compound 208, 4-((5S,5aS,6S,9R)-12-((1-(((1S,4S)-2-Oxa-5-azabicyclo[2.2.1]heptan-5-yl)methyl)cyclopropyl)methoxy)-1-fluoro-5-methyl-5a,6,7,8,9,10-hexahydro-5H-4-oxa-3,10a,11,13,14-pentaaza-6,9-methanonaphtho[1,8-ab]heptalene-2-yl)-6-methyl-5-(trifluoromethyl)pyridin-2-amine], the pIC50 in test [1] (Homo sapiens, HPAC, 168 h) was 8.31; in test [2] (Homo sapiens, NCI-H1975, 168 h), 5.44.

Consider `Cc1c(F)c(N)cc(-c2nc3c4c(nc(OCCCN5C[C@H]6C[C@@H]5CO6)nc4c2F)N2C[C@H]4CC[C@H](N4)[C@H]2[C@H](C)O3)c1C(F)(F)F` [Compound 163, 5-((5S,5aS,6S,9R)-12-(3-((1R,4R)-2-Oxa-5-azabicyclo[2.2.1]heptan-5-yl)propoxy)-1-fluoro-5-methyl-5a,6,7,8,9,10-hexahydro-5H-4-oxa-3,10a,11,13,14-pentaaza-6,9-methanonaphtho[1,8-ab]heptalen-2-yl)-2-fluoro-3-methyl-4-(trifluoromethyl)aniline], for which the negative logarithm of the IC50 (pIC50) was 7.99 in test [1] (Homo sapiens, HPAC, 168 h) and 5.94 in test [2] (Homo sapiens, NCI-H1975, 168 h).

For `Cc1c(F)c(O)cc(-c2nc3c4c(nc(OC[C@@]56CCCN5C[C@H](F)C6)nc4c2F)N2C[C@H]4CC[C@H](N4)[C@H]2[C@H](C)O3)c1C(F)(F)F` [Compound 202, 2-Fluoro-5-((5S,5aS,6S,9R)-1-fluoro-12-(((2R,7aS)-2-fluorotetrahydro-1H-pyrrolizin-7a(5H)-yl)methoxy)-5-methyl-5a,6,7,8,9,10-hexahydro-5H-4-oxa-3,10a,11,13,14-pentaaza-6,9-methanonaphtho[1,8-ab]heptalen-2-yl)-3-methyl-4-(trifluoromethyl)phenol], the pIC50 was 5.70 in test [1] (Homo sapiens, HPAC, 168 h) and 4.70 in test [2] (Homo sapiens, NCI-H1975, 168 h).

Consider `Cc1c(F)c(N)cc(-c2nc3c4c(nc(OCC[C@@H]5CC[C@H]6COCCN56)nc4c2F)N2C[C@H]4CC[C@H](N4)[C@H]2[C@H](C)O3)c1C(F)(F)F` [Compound 154, 2-Fluoro-5-((5S,5aS,6S,9R)-1-fluoro-12-(2-((6S,8aS)-hexahydro-1H-pyrrolo[2,1-c][1,4]oxazin-6-yl)ethoxy)-5-methyl-5a,6,7,8,9,10-hexahydro-5H-4-oxa-3,10a,11,13,14-pentaaza-6,9-methanonaphtho[1,8-ab]heptalen-2-yl)-3-methyl-4-(trifluoromethyl)aniline], for which the pIC50 was 7.69 in test [1] (Homo sapiens, HPAC, 168 h) and 5.39 in test [2] (Homo sapiens, NCI-H1975, 168 h).

Consider `Cc1nc(N)c(F)c(-c2nc3c4c(nc(OCC5(CN6CCOCC6)CC5)nc4c2F)N2C[C@H]4CC[C@H](N4)[C@H]2[C@H](C)O3)c1C(F)(F)F` [Compound 219, 3-Fluoro-4-((5S,5aS,6S,9R)-1-fluoro-5-methyl-12-((1-(morpholinomethyl)cyclopropyl)methoxy)-5a,6,7,8,9,10-hexahydro-5H-4-oxa-3,10a,11,13,14-pentaaza-6,9-methanonaphtho[1,8-ab]heptalen-2-yl)-6-methyl-5-(trifluoromethyl)pyridin-2-amine], for which the negative-log IC50 (pIC50) in test [1] (Homo sapiens, HPAC, 168 h) is 8.44; in test [2] (Homo sapiens, NCI-H1975, 168 h), 5.08.

Regarding `Cc1c(F)c(N)cc(-c2nc3c4c(nc(OCC5(CCF)CCCN5C)nc4c2F)N2CC4CCC(N4)C2C(C)O3)c1C(F)(F)F` (single isomer, unassigned) [127 (isomer 2)], the pIC50 in test [1] (Homo sapiens, HPAC, 168 h) was 7.24; in test [2] (Homo sapiens, NCI-H1975, 168 h) it was 5.10.

Turning to `Cc1c(F)c(N)cc(-c2nc3c4c(nc(OC[C@]5(CN6CCOCC6)CC5(F)F)nc4c2F)N2C[C@H]4CC[C@H](N4)[C@H]2[C@H](C)O3)c1C(F)(F)F` [167 a], the pIC50 was 8.80 in test [1] and 5.94 in test [2].
